Our source for the IC50 values is patent US7285556B2, “Thienopyrimidine-based inhibitors of the src family” (Board of Regents, The University of Texas Systems, priority 2000, dated 2007).

Where only a bound is given, the exact number is not on record here.

T2 sequence (P41240 whole entry, species assumed): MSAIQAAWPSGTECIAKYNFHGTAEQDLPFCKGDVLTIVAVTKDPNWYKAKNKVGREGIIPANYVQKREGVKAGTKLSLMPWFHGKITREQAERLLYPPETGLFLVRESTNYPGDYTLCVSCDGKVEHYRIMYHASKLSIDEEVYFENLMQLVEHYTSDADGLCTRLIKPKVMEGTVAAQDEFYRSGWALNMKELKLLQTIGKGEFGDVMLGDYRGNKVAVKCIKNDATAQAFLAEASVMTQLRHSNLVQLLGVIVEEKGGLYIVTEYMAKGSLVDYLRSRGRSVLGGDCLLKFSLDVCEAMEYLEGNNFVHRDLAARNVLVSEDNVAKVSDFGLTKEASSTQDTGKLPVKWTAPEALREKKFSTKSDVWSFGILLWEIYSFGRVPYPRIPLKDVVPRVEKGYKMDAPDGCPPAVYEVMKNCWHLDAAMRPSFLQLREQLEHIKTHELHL

The target of one test is T1, Recombinant human Src (Homo sapiens, UniProt P12931).
T1 construct: made in house; host or cells: baculovirus-insect cell system
T1 sequence (P12931 whole entry): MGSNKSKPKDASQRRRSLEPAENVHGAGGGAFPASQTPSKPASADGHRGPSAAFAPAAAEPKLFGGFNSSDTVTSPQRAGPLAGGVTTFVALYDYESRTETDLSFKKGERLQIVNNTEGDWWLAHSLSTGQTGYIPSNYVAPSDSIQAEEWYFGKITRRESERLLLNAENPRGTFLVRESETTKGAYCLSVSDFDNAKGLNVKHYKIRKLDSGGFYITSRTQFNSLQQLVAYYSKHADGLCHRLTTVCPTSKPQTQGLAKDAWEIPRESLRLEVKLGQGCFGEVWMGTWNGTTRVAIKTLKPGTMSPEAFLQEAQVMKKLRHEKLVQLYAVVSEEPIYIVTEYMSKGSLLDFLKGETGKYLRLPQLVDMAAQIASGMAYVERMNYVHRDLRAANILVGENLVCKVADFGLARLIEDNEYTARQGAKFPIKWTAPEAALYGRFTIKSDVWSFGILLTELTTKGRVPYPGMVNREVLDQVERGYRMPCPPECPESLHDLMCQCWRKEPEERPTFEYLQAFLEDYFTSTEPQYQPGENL
The test can be described thus: Src tyrosine kinase activity, poly E4Y and 32P-ATP. It counts as biochemical. As to conditions: Table 2; read-out: Src IC50 (especially good inhibitors of Src). Here is the method:
(§1) Recombinant human Src was expressed using the baculovirus-insect cell system and purified as published (Budde et al., 1993 and 2000). Recombinant Csk and the FGF receptor (FGFr) were expressed as glutathione-S-transferase fusion proteins using the pGEX expression vector and E. coli, and purified as described (Sun & Budde, 1995).
(§2) The tyrosine kinase activity of Src, Csk and FGFr was determined using poly E4Y and ^32P-ATP. Briefly, enzymes were assayed in a reaction mixture consisting of 0.15 M EPPS-NaOH (pH 8.0) with 6 mM MgCl2, 0.2 mM γ^32P-ATP (0.2-0.4 mCi/μmol), 10% glycerol, 0.1% Triton X-100, and poly E4Y. Poly E4Y is a synthetic peptide whose phosphorylation is measured in this assay by the addition of the radioactively labeled phosphate from the ATP (Budde et al., 1995). […] When ATP was varied (0, 50, 100 and 250 μM), poly E4Y was kept constant at 150 μg/ml.
With `COc1cccc(-c2sc3c(NN=Cc4cccnc4)ncnc3c2C)c1` [Compound 426, 3-Pyridinecarboxaldehyde(6-(3-methoxyphenyl)-7-methylthieno[3,2-d]pyrimidin-4-yl)hydrazone], the 50% inhibitory concentration (IC50) (commonly the concentration at which inhibition is half-maximal) is no more than 2 µM.

For the molecule `Cc1c(-c2ccccc2Cl)sc2c(NN=Cc3ccc(C(=O)O)cc3)ncnc12` [Compound 390, 4-Carboxybenzaldehyde(6-(2-chlorophenyl)7-methylthieno[3,2-d]pyrimidin-4-yl)hydrazone], the IC50 was no more than 2 µM.

The same test, now with this note: read-out: IC50 (preferred compounds for treatment of Src family-related disease).
Turning to `COc1cccc(-c2sc3c(NN=Cc4cccnc4)ncnc3c2C)c1` [Compound 426, 3-Pyridinecarboxaldehyde(6-(3-methoxyphenyl)-7-methylthieno[3,2-d]pyrimidin-4-yl)hydrazone], the IC50 is less than 2 µM.

`Cc1c(-c2ccccc2Cl)sc2c(NN=Cc3ccc(C(=O)O)cc3)ncnc12` [Compound 390, 4-Carboxybenzaldehyde(6-(2-chlorophenyl)7-methylthieno[3,2-d]pyrimidin-4-yl)hydrazone]: the IC50 was less than 2 µM.

A further test concerns the target T2, Csk (Homo sapiens, UniProt P41240).
T2 construct: GST (glutathione-S-transferase) (N); made in house; host or cells: E. coli (pGEX vector)
The test can be described thus: Csk tyrosine kinase activity, poly E4Y and 32P-ATP. It counts as biochemical. As to conditions: poly E4Y and 32P-ATP. The procedure: as §1, §2
As to `COc1ccc(C=NNc2ncnc3c(C)c(C(O)c4cc(OC)c(OC)c(OC)c4)sc23)cc1O` (stereo not shown) [Compound 482, 3-Hydroxy-4-methoxybenzaldehyde(6-(1-hydroxy-1-[3,4,5-trimethoxyphenyl])methyl-7-methylthieno[3,2-d]pyrimidin-4-yl)hydrazone], the IC50 is greater than 97.9 µM.

In the case of `COc1cc(C(O)c2sc3c(NN=Cc4cccs4)ncnc3c2C)cc(OC)c1OC` (stereo not shown) [Compound 481, 2-Thiophenecarboxaldehyde(6-(1-hydroxy-1-[3,4,5-trimethoxyphenyl])methyl-7-methylthieno[3,2-d]pyrimidin-4-yl)hydrazone], the IC50 was greater than 106 µM. Still for that read-out and setting: the result for `COc1cc(C(O)c2sc3c(NN=Cc4cccnc4)ncnc3c2C)cc(OC)c1OC` (stereo not shown) [Compound 479, 3-Pyridinecarboxaldehyde(6-(1-hydroxy-1-[3,4,5-trimethoxyphenyl])methyl-7-methylthieno[3,2-d]pyrimidin-4-yl)hydrazone] reads greater than 107 µM; that for `COc1cc(C(O)c2sc3c(NN=Cc4ccc(C(=O)O)cc4)ncnc3c2C)cc(OC)c1OC` (stereo not shown) [Compound 480, 4-Carboxybenzaldehyde(6-(1-hydroxy-1-[3,4,5-trimethoxyphenyl])methyl-7-methylthieno[3,2-d]pyrimidin-4-yl)hydrazone], greater than 98.3 µM.

The same test, now with this note: screening assay, 50 μg/ml poly E4Y, 0.2 mM 32P-ATP.
`CCCCC=NNc1ncnc2c(C)csc12` [Compound 175, Pentanal(7-methylthieno[3,2-d]pyrimidin-4-yl)hydrazone] displayed a concentration for half-maximal inhibition (IC50) greater than 201 µM. Same read-out and setting: the result for `CC=CC=NNc1ncnc2c(C)csc12` [Compound 182, E-2-Butenal(7-methylthieno[3,2-d]pyrimidin-4-yl)hydrazone] reads greater than 215 µM; that for `COc1cccc(-c2sc3c(NN=Cc4cccnc4)ncnc3c2C)c1` [Compound 426, 3-Pyridinecarboxaldehyde(6-(3-methoxyphenyl)-7-methylthieno[3,2-d]pyrimidin-4-yl)hydrazone], greater than 133 µM.

Turning to `Cc1csc2c(NN=Cc3ccc(O)cc3)ncnc12` [Compound 10, 4-Hydroxybenzaldehyde(7-methylthieno[3,2-d]pyrimidin-4-yl)hydrazone], the half-maximal inhibitory concentration (IC50) was greater than 176 µM.

`COc1ccc(-c2sc3c(NN=Cc4cccs4)ncnc3c2C)cc1` [Compound 424, 2-Thiophenecarboxaldehyde(6-(4-methoxyphenyl)-7-methylthieno[3,2-d]pyrimidin-4-yl)hydrazone] showed an IC50 greater than 131 µM.

Molecule `Cc1csc2c(NN=Cc3ccccn3)ncnc12` [Compound 26, 2-Pyridinecarboxaldehyde(7-methylthieno[3,2-d]pyrimidin-4-yl)hydrazone] displayed an IC50 greater than 186 µM. As to `COc1ccc(-c2cc3ncnc(NN=Cc4cccs4)c3s2)cc1` [Compound 407, 2-Thiophenecarboxaldehyde(6-(4-methoxyphenyl)thieno[3,2-d]pyrimidin-4-yl)hydrazone], the concentration for half-maximal inhibition (IC50) was greater than 136 µM.

For `CC=NNc1ncnc2c(C)csc12` [Compound 153, Ethanal(7-methylthieno[3,2-d]pyrimidin-4-yl)hydrazone], the IC50 was greater than 242 µM. The same measure, in the same setting: the result for `Cc1csc2c(NN=Cc3ccccc3Cl)ncnc12` [Compound 45, 2-Chlorobenzaldehyde(7-methylthieno[3,2-d]pyrimidin-4-yl)hydrazone] reads greater than 165 µM; that for `CCCCOc1cccc(C=NNc2ncnc3c(C)csc23)c1` [Compound 139], greater than 147 µM; that for `COc1ccc(C=NNc2ncnc3c(C)c(/C=C/c4ccccc4)sc23)cc1O` [Compound 450, 3-Hydroxy-4-methoxybenzaldehyde(7-methyl-6-(trans-2-phenylvinyl)-thieno[3,2-d]pyrimidin-4-yl)hydrazone], greater than 120 µM.

As for `Cc1csc2c(NN=Cc3ccc(C(=O)O)cc3)ncnc12` [Compound 28, 4-Carboxybenzaldehyde(7-methylthieno[3,2-d]pyrimidin-4-yl)hydrazone], the IC50 was greater than 160 µM.

The molecule `C(=NNc1ncnc2cc(-c3ccccc3)sc12)c1cccs1` [Compound 253] registered an IC50 greater than 149 µM. Same read-out and setting: then `CCCOc1ccc(C=NNc2ncnc3c(C)csc23)cc1` [Compound 134, 4-Propoxybenzaldehyde(7-methylthieno[3,2-d]pyrimidin-4-yl)hydrazone], with greater than 153 µM; and `Cc1csc2c(NN=CC3CC=CCC3)ncnc12` (stereo not shown) [Compound 181, 3-Cyclohexene-1-carboxaldehyde(7-methylthieno[3,2-a]pyrimidin-4-yl)hydrazone], with greater than 184 µM. Same read-out and setting: the result for `CCCC=NNc1ncnc2c(C)csc12` [Compound 174, Butanal(7-methylthieno[3,2-d]pyrimidin-4-yl)hydrazone] reads greater than 213 µM. On the same count and under the same terms, the result for `Cc1csc2c(NN=Cc3ccoc3)ncnc12` [Compound 38, 3-Furancarboxaldehyde(7-methylthieno[3,2-d]pyrimidin-4-yl)hydrazone] reads greater than 194 µM. For `Cc1sc2c(NN=Cc3ccc(F)cc3)ncnc2c1C` [Compound 93, 4-Fluorobenzaldehyde(6,7-dimethylthieno[3,2-d]pyrimidin-4-yl)hydrazone], the IC50 is greater than 166 µM. Same read-out and setting: the result for `Cc1c(I)sc2c(NN=Cc3cccs3)ncnc12` [Compound 374, 2-Thiophenecarboxaldehyde(6-iodo-7-methylthieno[3,2-d]pyrimidin-4-yl)hydrazone] reads greater than 125 µM; that for `Cc1csc2c(NN=Cc3nccs3)ncnc12` [Compound 40, 2-Thiazolecarboxaldehyde(7-methylthieno[3,2-d]pyrimidin-4-yl)hydrazone], greater than 182 µM. `N#Cc1ccc(C=NNc2ncnc3c2sc2ncccc23)cc1` [Compound 248] yielded an IC50 greater than 151 µM. Molecule `CCC=NNc1ncnc2c(C)csc12` [Compound 173, Propanal(7-methylthieno[3,2-d]pyrimidin-4-yl)hydrazone] returned a 50% inhibitory concentration (IC50) greater than 227 µM. The same measure, in the same setting: the result for `CSc1ccc(C=NNc2ncnc3c(C)csc23)cc1` [Compound 172, 4-(Methylthio)benzaldehyde(7-methylthieno[3,2-d]pyrimidin-4-yl)hydrazone] reads greater than 159 µM. For `Cc1csc2c(NN=CC3CCCCC3)ncnc12` [Compound 25, Cyclohexanecarboxaldehyde(7-methylthieno[3,2-d]pyrimidin-4-yl)hydrazone], the concentration for half-maximal inhibition (IC50) is greater than 182 µM.

Take `Cc1csc2c(NN=Cc3ncc[nH]3)ncnc12` [Compound 34, 1H-Imidazole-2-carboxaldehyde(7-methylthieno[3,2-d]pyrimidin-4-yl)hydrazone]: the half-inhibitory concentration (IC50) was greater than 194 µM. On the same count and under the same terms, then `Cc1csc2c(NN=Cc3ccc(Br)cc3)ncnc12` [Compound 56], with greater than 144 µM; and `Clc1cccc(-c2cc3ncnc(NN=Cc4cccs4)c3s2)c1` [Compound 306], with greater than 135 µM. Still for that read-out and setting: then `Cc1csc2c(NN=Cc3ccc(F)cc3)ncnc12` [Compound 6, 4-Fluorobenzaldehyde(7-methylthieno[3,2-d]pyrimidin-4-yl)hydrazone], with greater than 175 µM; and `Clc1ccc(-c2cc3ncnc(NN=Cc4cccnc4)c3s2)cc1` [Compound 308, 3-Pyridinecarboxaldehyde(6-(4-chlorophenyl)thieno[3,2-d]pyrimidin-4-yl)hydrazone], with greater than 137 µM; and `Cc1csc2c(NN=Cc3cccc(C(=O)O)c3)ncnc12` [Compound 249, 3-Carboxybenzaldehyde(7-methylthieno[3,2-d]pyrimidin-4-yl)hydrazone], with greater than 160 µM. On to `Cc1csc2c(NN=Cc3nccn3C)ncnc12` [Compound 101, 1-Methyl-1H-imidazole-2-carboxaldehyde(7-methylthieno[3,2-d]pyrimidin-4-yl)hydrazone], for which the IC50 was greater than 184 µM. For the molecule `Clc1ccc(-c2cc3ncnc(NN=Cc4cccs4)c3s2)cc1` [Compound 310], the IC50 was greater than 135 µM.

As to `Ic1cc2ncnc(NN=Cc3cccs3)c2s1` [Compound 396, 2-Thiophenecarboxaldehyde(6-iodothieno[3,2-d]pyrimidin-4-yl)hydrazone], the IC50 was greater than 129 µM. The same measure, in the same setting: the result for `CCCOc1cccc(C=NNc2ncnc3c(C)csc23)c1` [Compound 135, 3-Propoxybenzaldehyde(7-methylthieno[3,2-d]pyrimidin-4-yl)hydrazone] reads greater than 153 µM; that for `Cc1ccsc1C=NNc1ncnc2c(C)csc12` [Compound 119, 3-Methyl-2-thiophenecarboxaldehyde(7-methylthieno[3,2-d]pyrimidin-4-yl)hydrazone], greater than 173 µM. On the same count and under the same terms, the result for `Clc1cccc(-c2cc3ncnc(NN=Cc4cccnc4)c3s2)c1` [Compound 304, 3-Pyridinecarboxaldehyde(6-(3-chlorophenyl)thieno[3,2-d]pyrimidin-4-yl)hydrazone] reads greater than 137 µM; that for `CC(=O)Nc1ccc(C=NNc2ncnc3c(C)csc23)cc1` [Compound 20, 4-Acetamidobenzaldehyde(7-methylthieno[3,2-d]pyrimidin-4-yl)hydrazone], greater than 154 µM; that for `Cc1csc2c(NN=Cc3cccc([N+](=O)[O-])c3)ncnc12` [Compound 144], greater than 160 µM.
